The text below walks through data of ChEMBL document CHEMBL3638975, “Aminomethyl-4-imidazoles” (2013).

The assay has as its target Trace amine-associated receptor 1 (Mus musculus, UniProt Q923Y8). Briefly: Binding Assay: Radioligand binding assay: The radioligand [3H]-rac-2-(1,2,3,4-tetrahydro-1-naphthyl)-2-imidazoline was used at a concentration equal to the calculated Kd value of 60 nM to give a total binding at around 0.1% of the total added radioligand concentration, and a specific binding which represented approximately 70-80% of the total binding.

Sequence of Trace amine-associated receptor 1 (Q923Y8 whole entry): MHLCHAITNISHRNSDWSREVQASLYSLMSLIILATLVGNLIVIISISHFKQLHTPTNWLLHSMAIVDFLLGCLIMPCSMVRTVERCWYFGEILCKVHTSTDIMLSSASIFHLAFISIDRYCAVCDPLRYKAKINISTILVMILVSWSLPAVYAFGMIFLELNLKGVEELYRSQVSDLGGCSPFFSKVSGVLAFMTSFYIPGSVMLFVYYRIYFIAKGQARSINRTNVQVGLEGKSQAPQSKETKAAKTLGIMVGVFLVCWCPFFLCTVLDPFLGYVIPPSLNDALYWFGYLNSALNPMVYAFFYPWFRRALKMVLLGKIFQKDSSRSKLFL

On to `CN(Cc1cnc[nH]1)c1cccc(F)c1`, for which the Ki (in general, the equilibrium dissociation constant of an inhibitor or competing ligand from its target) is 2.9 nM.

On to `CCN(Cc1cnc[nH]1)c1ccc(CCc2ccc(Cl)cc2)cc1`, for which the Ki is 7.2 nM.
